Measured values taken from article PMC6591251, “Discovery of potent necroptosis inhibitors targeting RIPK1 kinase activity for the treatment of inflammatory disorder and cancer metastasis” (Cell Death & Disease, 2019).

Columns and labels:
Experiment in all cases: RBC kinase panel
Assay type in all cases: biochemical
Settings in all cases: ATP 10 μM, Data1, Data2
[1] = target: T1, EPHA8 (Homo sapiens, UniProt P29322)
T1 construct: purchased Reaction Biology Corporation
Protocol: (§1) PK68 was tested at 1 μM in duplicate against a panel of 369 human kinases at Reaction Biology Corporation. Results are viewed in the human kinome phylogenetic tree.
(§2) ^a Compound PK68 was tested at 1 μM in duplicate against 369 kinases using the RBC kinase panel service of Reaction Biology Corporation. All the ATP concentrations used were 10 μM. […] Full protocol details are available at http://www.reactionbiology.com.

[2] = target: T2, CAMKK2 (Homo sapiens, UniProt Q96RR4)
T2 construct: purchased Reaction Biology Corporation
Protocol: as §1, §2

[3] = target: T3, HIPK1 (Homo sapiens, UniProt Q86Z02)
T3 construct: purchased Reaction Biology Corporation
Protocol: as §1, §2

[4] = target: T4, CAMK1a (Homo sapiens, UniProt Q14012)
T4 construct: purchased Reaction Biology Corporation
Protocol: as §1, §2

[5] = target: T5, CLK1 (Homo sapiens, UniProt P49759)
T5 construct: purchased Reaction Biology Corporation
Protocol: as §1, §2

[6] = target: T6, MSK1/RPS6KA5 (Homo sapiens, UniProt O75582)
T6 construct: purchased Reaction Biology Corporation
Protocol: as §1, §2

[7] = target: T7, SRPK1 (Homo sapiens, UniProt Q96SB4)
T7 construct: purchased Reaction Biology Corporation
Protocol: as §1, §2

[8] = target: T8, PIM2 (Homo sapiens, UniProt Q9P1W9)
T8 construct: purchased Reaction Biology Corporation
Protocol: as §1, §2

[9] = target: T9, ROS/ROS1 (Homo sapiens, UniProt P08922)
T9 construct: purchased Reaction Biology Corporation
Protocol: as §1, §2

[10] = target: T10, CDK1/cyclin B (Homo sapiens, UniProt P06493)
T10 construct: purchased Reaction Biology Corporation
Protocol: as §1, §2

[11] = target: T11, HIPK4 (Homo sapiens, UniProt Q8NE63)
T11 construct: purchased Reaction Biology Corporation
Protocol: as §1, §2

[12] = target: T12, PKG2/PRKG2 (Homo sapiens, UniProt Q13237)
T12 construct: purchased Reaction Biology Corporation
Protocol: as §1, §2

[13] = target: T13, STK32C/YANK3 (Homo sapiens, UniProt Q86UX6)
T13 construct: purchased Reaction Biology Corporation
Protocol: as §1, §2

[14] = target: T14, CDK4/cyclin D1 (Homo sapiens, UniProt P11802)
T14 construct: purchased Reaction Biology Corporation
Protocol: as §1, §2

[15] = target: T15, HCK (Homo sapiens, UniProt P08631)
T15 construct: purchased Reaction Biology Corporation
Protocol: as §1, §2

[16] = target: T16, MRCKb/CDC42BPB (Homo sapiens, UniProt Q9Y5S2)
T16 construct: purchased Reaction Biology Corporation
Protocol: as §1, §2

[17] = target: T17, JAK1 (Homo sapiens, UniProt P23458)
T17 construct: purchased Reaction Biology Corporation
Protocol: as §1, §2

[18] = target: T18, DMPK2 (Homo sapiens, UniProt Q6DT37)
T18 construct: purchased Reaction Biology Corporation
Protocol: as §1, §2

[19] = target: T19, P38b/MAPK11 (Homo sapiens, UniProt Q15759)
T19 construct: purchased Reaction Biology Corporation
Protocol: as §1, §2

[20] = target: T20, JNK3 (Homo sapiens, UniProt P53779)
T20 construct: purchased Reaction Biology Corporation
Protocol: as §1, §2

[21] = target: T21, Aurora B (Homo sapiens, UniProt Q96GD4)
T21 construct: purchased Reaction Biology Corporation
Protocol: as §1, §2

[22] = target: T22, KHS/MAP4K5 (Homo sapiens, UniProt Q9Y4K4)
T22 construct: purchased Reaction Biology Corporation
Protocol: as §1, §2

[23] = target: T23, RAF1 (Homo sapiens, UniProt P04049)
T23 construct: purchased Reaction Biology Corporation
Protocol: as §1, §2

[24] = target: T24, c-MET (Homo sapiens, UniProt P08581)
T24 construct: purchased Reaction Biology Corporation
Protocol: as §1, §2

[25] = target: T25, CDK4/cyclin D3 (Homo sapiens, UniProt P11802)
T25 construct: purchased Reaction Biology Corporation
Protocol: as §1, §2

[26] = target: T26, HIPK2 (Homo sapiens, UniProt Q9H2X6)
T26 construct: purchased Reaction Biology Corporation
Protocol: as §1, §2

[27] = target: T27, MEKK6 (Homo sapiens, UniProt O95382)
T27 construct: purchased Reaction Biology Corporation
Protocol: as §1, §2

[28] = target: T28, CAMK2b (Homo sapiens, UniProt Q13554)
T28 construct: purchased Reaction Biology Corporation
Protocol: as §1, §2

[29] = target: T29, KSR1 (Homo sapiens, UniProt Q8IVT5)
T29 construct: purchased Reaction Biology Corporation
Protocol: as §1, §2

[30] = target: T30, ASK1/MAP3K5 (Homo sapiens, UniProt Q99683)
T30 construct: purchased Reaction Biology Corporation
Protocol: as §1, §2

[31] = target: T31, NEK4 (Homo sapiens, UniProt P51957)
T31 construct: purchased Reaction Biology Corporation
Protocol: as §1, §2

[32] = target: T32, CAMK2d (Homo sapiens, UniProt Q13557)
T32 construct: purchased Reaction Biology Corporation
Protocol: as §1, §2

[33] = target: T33, FGR (Homo sapiens, UniProt P09769)
T33 construct: purchased Reaction Biology Corporation
Protocol: as §1, §2

T3 sequence (Q86Z02 whole entry): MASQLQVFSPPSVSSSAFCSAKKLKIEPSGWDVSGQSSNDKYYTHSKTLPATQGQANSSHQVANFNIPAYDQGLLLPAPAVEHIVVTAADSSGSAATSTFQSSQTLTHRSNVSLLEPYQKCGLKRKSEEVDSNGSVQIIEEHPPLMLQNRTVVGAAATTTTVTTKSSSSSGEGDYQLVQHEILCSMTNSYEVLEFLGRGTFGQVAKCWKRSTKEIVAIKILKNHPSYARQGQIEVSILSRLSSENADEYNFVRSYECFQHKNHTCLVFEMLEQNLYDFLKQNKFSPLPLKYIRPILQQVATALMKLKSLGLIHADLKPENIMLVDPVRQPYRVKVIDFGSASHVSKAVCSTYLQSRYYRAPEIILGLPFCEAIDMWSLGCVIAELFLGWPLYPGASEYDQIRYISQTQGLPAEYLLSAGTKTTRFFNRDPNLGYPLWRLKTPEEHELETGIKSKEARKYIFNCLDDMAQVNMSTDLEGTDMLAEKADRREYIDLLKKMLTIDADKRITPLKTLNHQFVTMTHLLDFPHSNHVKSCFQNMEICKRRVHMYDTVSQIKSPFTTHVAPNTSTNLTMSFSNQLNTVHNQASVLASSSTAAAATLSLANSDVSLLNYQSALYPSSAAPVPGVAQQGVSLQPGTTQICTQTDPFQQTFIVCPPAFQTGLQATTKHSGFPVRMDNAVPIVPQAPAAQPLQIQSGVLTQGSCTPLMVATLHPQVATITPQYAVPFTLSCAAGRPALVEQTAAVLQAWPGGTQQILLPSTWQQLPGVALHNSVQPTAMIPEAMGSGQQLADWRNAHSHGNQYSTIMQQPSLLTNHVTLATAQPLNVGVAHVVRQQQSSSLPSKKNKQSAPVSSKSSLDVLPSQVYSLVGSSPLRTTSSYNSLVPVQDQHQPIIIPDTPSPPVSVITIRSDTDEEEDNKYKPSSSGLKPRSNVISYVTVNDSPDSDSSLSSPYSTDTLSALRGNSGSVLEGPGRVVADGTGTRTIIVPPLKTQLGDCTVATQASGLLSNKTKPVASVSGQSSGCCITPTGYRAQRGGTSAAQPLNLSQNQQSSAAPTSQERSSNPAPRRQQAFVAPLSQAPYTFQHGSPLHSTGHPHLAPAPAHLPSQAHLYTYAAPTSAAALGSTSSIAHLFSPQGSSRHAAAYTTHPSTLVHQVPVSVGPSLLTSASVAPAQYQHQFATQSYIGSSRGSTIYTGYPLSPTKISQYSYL
T11 sequence (Q8NE63 whole entry): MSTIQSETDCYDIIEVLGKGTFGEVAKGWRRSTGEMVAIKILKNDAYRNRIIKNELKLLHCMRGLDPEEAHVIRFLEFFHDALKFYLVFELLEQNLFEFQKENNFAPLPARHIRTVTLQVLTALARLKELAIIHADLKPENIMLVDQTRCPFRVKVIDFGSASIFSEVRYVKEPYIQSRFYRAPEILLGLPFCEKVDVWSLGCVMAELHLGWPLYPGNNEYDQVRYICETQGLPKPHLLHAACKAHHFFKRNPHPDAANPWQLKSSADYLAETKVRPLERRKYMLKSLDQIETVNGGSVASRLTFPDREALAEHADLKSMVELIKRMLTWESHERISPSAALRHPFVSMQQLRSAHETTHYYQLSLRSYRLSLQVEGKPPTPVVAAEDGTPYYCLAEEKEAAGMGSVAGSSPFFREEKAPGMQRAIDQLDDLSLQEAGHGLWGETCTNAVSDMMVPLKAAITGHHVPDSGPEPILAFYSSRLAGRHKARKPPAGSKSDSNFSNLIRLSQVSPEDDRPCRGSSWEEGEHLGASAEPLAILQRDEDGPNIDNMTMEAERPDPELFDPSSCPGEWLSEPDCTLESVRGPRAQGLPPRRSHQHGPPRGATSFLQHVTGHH
T30 sequence (Q99683 whole entry): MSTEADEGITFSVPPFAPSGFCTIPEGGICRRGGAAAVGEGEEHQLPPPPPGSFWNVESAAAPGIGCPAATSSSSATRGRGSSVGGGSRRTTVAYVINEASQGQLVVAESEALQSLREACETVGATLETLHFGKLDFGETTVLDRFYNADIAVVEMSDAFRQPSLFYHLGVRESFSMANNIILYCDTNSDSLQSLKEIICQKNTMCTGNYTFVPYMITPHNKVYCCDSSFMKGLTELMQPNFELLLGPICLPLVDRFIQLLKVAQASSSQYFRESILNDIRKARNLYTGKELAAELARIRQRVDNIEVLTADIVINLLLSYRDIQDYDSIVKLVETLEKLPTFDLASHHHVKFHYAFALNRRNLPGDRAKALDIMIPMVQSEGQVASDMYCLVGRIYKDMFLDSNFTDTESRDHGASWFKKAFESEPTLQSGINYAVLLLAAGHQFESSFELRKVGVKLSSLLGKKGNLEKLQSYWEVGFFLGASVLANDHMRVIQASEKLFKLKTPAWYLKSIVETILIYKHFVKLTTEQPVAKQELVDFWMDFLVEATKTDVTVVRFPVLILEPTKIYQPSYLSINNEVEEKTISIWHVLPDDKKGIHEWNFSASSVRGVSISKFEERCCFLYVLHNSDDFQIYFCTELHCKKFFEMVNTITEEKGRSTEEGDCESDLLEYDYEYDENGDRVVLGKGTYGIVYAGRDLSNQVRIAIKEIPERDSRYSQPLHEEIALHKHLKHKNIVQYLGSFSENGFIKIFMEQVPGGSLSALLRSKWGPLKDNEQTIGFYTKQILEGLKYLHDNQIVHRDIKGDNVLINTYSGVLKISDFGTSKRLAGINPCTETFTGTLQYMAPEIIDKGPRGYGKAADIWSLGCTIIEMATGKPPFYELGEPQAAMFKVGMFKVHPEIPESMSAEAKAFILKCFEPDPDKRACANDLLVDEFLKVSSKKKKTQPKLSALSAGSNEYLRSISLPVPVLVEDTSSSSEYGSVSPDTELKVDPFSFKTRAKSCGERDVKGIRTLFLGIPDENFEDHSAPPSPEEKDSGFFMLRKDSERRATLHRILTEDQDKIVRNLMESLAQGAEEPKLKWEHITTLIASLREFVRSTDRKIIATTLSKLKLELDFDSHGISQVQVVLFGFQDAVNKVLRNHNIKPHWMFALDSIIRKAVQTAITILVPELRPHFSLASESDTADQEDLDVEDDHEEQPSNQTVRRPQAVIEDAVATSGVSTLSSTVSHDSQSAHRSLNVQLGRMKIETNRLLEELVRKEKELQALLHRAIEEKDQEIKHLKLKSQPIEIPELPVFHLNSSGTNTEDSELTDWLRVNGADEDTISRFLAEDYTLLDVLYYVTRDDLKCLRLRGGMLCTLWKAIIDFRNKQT
T15 sequence (P08631 whole entry): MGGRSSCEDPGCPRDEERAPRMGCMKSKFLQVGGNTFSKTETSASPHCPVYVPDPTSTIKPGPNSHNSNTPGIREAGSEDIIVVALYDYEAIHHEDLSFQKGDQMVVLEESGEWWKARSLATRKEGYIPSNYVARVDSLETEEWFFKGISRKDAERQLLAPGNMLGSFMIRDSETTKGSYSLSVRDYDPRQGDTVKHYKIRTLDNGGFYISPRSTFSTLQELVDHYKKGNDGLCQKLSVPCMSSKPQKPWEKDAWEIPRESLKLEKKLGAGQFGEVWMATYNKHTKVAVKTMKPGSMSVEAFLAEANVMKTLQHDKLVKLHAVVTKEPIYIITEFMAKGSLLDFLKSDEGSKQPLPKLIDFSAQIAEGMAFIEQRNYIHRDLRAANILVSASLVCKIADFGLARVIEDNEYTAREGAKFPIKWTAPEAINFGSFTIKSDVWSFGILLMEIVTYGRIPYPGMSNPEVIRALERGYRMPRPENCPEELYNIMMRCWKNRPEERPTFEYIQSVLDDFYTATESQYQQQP
T21 sequence (Q96GD4 whole entry): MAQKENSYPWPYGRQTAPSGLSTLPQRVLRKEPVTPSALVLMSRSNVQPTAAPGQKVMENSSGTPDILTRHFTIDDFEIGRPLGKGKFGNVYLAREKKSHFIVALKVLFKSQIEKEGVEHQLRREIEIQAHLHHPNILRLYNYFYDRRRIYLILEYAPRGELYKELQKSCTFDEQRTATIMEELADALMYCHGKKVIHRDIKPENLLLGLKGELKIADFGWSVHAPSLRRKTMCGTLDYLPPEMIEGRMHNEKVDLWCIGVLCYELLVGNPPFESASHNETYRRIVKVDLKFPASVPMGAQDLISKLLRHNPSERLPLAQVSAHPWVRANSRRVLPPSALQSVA
T29 sequence (Q8IVT5 whole entry): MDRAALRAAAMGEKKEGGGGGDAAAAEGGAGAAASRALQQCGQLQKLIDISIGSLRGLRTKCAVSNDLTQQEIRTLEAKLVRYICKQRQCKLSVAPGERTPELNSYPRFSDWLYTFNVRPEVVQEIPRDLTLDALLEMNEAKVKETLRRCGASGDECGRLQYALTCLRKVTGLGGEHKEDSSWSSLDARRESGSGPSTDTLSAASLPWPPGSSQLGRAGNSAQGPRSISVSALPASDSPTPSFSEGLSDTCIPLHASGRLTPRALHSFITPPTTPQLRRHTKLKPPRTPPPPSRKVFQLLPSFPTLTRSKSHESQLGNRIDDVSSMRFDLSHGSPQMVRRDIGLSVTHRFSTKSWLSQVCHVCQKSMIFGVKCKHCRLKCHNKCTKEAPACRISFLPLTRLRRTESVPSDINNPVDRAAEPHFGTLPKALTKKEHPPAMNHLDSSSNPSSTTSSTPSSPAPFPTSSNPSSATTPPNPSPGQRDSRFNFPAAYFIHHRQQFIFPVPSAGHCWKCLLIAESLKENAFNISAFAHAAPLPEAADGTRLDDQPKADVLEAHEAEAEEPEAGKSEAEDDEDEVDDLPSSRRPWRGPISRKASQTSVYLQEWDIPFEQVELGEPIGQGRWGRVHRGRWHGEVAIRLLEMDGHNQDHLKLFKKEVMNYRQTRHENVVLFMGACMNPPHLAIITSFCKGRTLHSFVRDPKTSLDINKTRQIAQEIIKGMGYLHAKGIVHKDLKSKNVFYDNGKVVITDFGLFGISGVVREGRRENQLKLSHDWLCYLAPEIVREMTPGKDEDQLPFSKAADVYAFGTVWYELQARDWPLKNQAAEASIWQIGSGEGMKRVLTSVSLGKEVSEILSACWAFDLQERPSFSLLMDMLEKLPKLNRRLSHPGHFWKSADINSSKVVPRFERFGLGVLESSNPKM

CC(=O)Nc1nc2ccc(-c3cnc(C)c(NC(=O)OC4CCCCC4)c3)cc2s1 [PK68, cyclohexyl (5-(2-acetamidobenzo[d]thiazol-6-yl)-2-methylpyridin-3-yl)carbamate]
Activity% ([1]; 1 μM): 99.05%
activity at 1 µM [1]: 100%
Activity% ([2]; 1 μM): 79.89%
activity at 1 µM [2]: 80.1%
Activity% ([3]; 1 μM): 86.01%
activity at 1 µM [3]: 87.4%
Activity% ([4]; 1 μM): 98.23%
activity at 1 µM [4]: 98.6%
Activity% ([5]; 1 μM): 80.72%
activity at 1 µM [5]: 81.9%
Activity% ([6]; 1 μM): 93.86%
activity at 1 µM [6]: 94%
Activity% ([7]; 1 μM): 99.67%
activity at 1 µM [7]: 100%
Activity% ([8]; 1 μM): 111.50%
activity at 1 µM [8]: 114%
Activity% ([9]; 1 μM): 88.56%
activity at 1 µM [9]: 88.9%
Activity% ([10]; 1 μM): 97.32%
activity at 1 µM [10]: 97.6%
Activity% ([11]; 1 μM): 72.16%
activity at 1 µM [11]: 74.6%
Activity% ([12]; 1 μM): 106.03%
activity at 1 µM [12]: 108%
Activity% ([13]; 1 μM): 100.29%
activity at 1 µM [13]: 101%
Activity% ([14]; 1 μM): 88.58%
activity at 1 µM [14]: 88.8%
Activity% ([15]; 1 μM): 100.14%
activity at 1 µM [15]: 102%
Activity% ([16]; 1 μM): 101.65%
activity at 1 µM [16]: 104%
Activity% ([17]; 1 μM): 99.20%
activity at 1 µM [17]: 99.5%
Activity% ([18]; 1 μM): 96.42%
activity at 1 µM [18]: 98.3%
Activity% ([19]; 1 μM): 102.60%
activity at 1 µM [19]: 103%
Activity% ([20]; 1 μM): 99.15%
activity at 1 µM [20]: 101%
Activity% ([21]; 1 μM): 83.50%
activity at 1 µM [21]: 83.7%
Activity% ([22]; 1 μM): 75.34%
activity at 1 µM [22]: 76.5%
Activity% ([23]; 1 μM): 75.37%
activity at 1 µM [23]: 76.1%
Activity% ([24]; 1 μM): 101.99%
activity at 1 µM [24]: 102%
Activity% ([25]; 1 μM): 93.75%
activity at 1 µM [25]: 94.2%
Activity% ([26]; 1 μM): 110.22%
activity at 1 µM [26]: 111%
Activity% ([27]; 1 μM): 88.83%
activity at 1 µM [27]: 91.3%
Activity% ([28]; 1 μM): 99.42%
activity at 1 µM [28]: 102%
Activity% ([29]; 1 μM): 101.02%
activity at 1 µM [29]: 102%
Activity% ([30]; 1 μM): 93.46%
activity at 1 µM [30]: 95.2%
Activity% ([31]; 1 μM): 97.97%
activity at 1 µM [31]: 98.9%
Activity% ([32]; 1 μM): 98.13%
activity at 1 µM [32]: 98.9%
Activity% ([33]; 1 μM): 82.32%
activity at 1 µM [33]: 87.2%
